Some test systems named below: BT-549 breast; PC-3 prostate; HS 578T breast; MDA-N.
Holding throughout (test): NCI anticancer screen, dose series, 48 h

Here are results for 21 molecules from PubChem BioAssay (NCI).

Several values for one entry are separate records, joined by “and”; a condition that tells them apart may be missing. Equal values may be shown once.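 96-well plates; 48 h exposure; 5 concentrations. Endpoints by linear interpolation between flanking doses. Not reached: highest tested concentration assigned. At the GI50, growth is halved. TGI marks complete inhibition of growth.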 Where a SMILES comes first, the peptide text is derived from it. [ ]: non-standard residue; d: D form. The star is where a group is joined. Bn2Val = CC(C)[C@@H](C(=O)*)N(Cc1ccccc1)Cc1ccccc1; NH(3,4-diMeO-benzyl) = COc1ccc(CN*)cc1OC; NMeV = CN[C@H](C(=O)O)C(C)C; dNMeA = CN[C@H](C)C(=O)O Bounds are passed on as bounds.

Take `CCOC(=O)c1cc(-c2ccc([N+](=O)[O-])cc2)n(-c2ccc(C(=O)O)c(O)c2)c1C`: the GI50 with BT-549 breast was 3.83 µM; with PC-3 prostate it was 2.96 µM; with HS 578T breast, 3.64 µM. For the same molecule, the TGI is 18.1 µM in the assay on BT-549 breast, 18.8 µM with PC-3 prostate and 17 µM in the assay with HS 578T breast.
`CN=C1NC(=O)/C(=C/c2ccc3ncccc3c2)S1`: the GI50 with BT-549 breast is 6.12 µM; in the assay on PC-3 prostate, 13.8 µM; in the assay on HS 578T breast it was 6.24 µM. Further, the results for the TGI with BT-549 breast, with PC-3 prostate and in the assay with HS 578T breast were over 23 µM, over 25 µM and over 21 µM, respectively.
For `COC(=O)[C@@H](C)C[C@H](Cc1ccccc1)NC(=O)c1nc([C@@H](C[C@H](C(C)C)N(C)C(=O)[C@@H](NC(=O)[C@H]2CCCN2C)C(C)C)OC(C)=O)sc1C`, the GI50 in the assay with BT-549 breast, with PC-3 prostate and with HS 578T breast was under 0.0025 µM throughout. Also, the TGI is 0.145 µM in the assay with BT-549 breast, over 25 µM in the assay on PC-3 prostate and 15.8 µM with HS 578T breast.
Turning to `N#Cc1c(O)c2c(c(O)c1C#N)C(=O)c1ccccc1C2=O`, the GI50 in the assay on BT-549 breast is 3.77 µM; in the assay on PC-3 prostate, 1.57 µM; in the assay on HS 578T breast, 1.26 µM. The TGI worked out at 14.9 µM in the assay with BT-549 breast, 7.01 µM in the assay on PC-3 prostate and 5.87 µM in the assay on HS 578T breast.
Turning to `COc1ccc(-n2cc(-c3ccc(OC)c(OC)c3)[nH]c2=S)cc1Cl`, the GI50 in the assay with PC-3 prostate was over 100 µM; in the assay with HS 578T breast, 38.9 µM. The TGI in the assay on PC-3 prostate and in the assay on HS 578T breast was over 100 µM each time.
For the molecule `N#Cc1cnn2ccn(C3OC(COC(=O)c4ccccc4)C(OC(=O)c4ccccc4)C3OC(=O)c3ccccc3)c12` (centres undefined), the TGI in the assay with BT-549 breast was over 100 µM; with PC-3 prostate, 21.5 µM; in the assay on HS 578T breast it was 21.5 µM; in the assay on MDA-N, over 21.5 µM.
As to `CN(C)c1ccc2c(c1)oc(=O)c1ccccc12`, the TGI in the assay with BT-549 breast stood at 17.1 µM; in the assay on PC-3 prostate, 30.5 µM; in the assay on HS 578T breast, 97.2 µM; with MDA-N it was 26.7 µM.
Regarding `ClCc1ccccc1CSc1ncnc2nc[nH]c12`, the GI50 in the assay on BT-549 breast, in the assay on PC-3 prostate and in the assay on HS 578T breast was over 60 µM each time. The TGI in the assay with BT-549 breast, in the assay on PC-3 prostate and with HS 578T breast was over 60 µM throughout.
For the molecule `CC(=O)c1ccc(N(/C=C/C(=O)C(F)(F)F)CC(=O)c2ccc(Cl)c(Cl)c2)cc1`, the figures for the GI50 with BT-549 breast, in the assay with PC-3 prostate and in the assay with HS 578T breast were 19.9 µM, 11.5 µM and 20.3 µM, respectively. In addition, the TGI in the assay on BT-549 breast stood at 38.9 µM; with PC-3 prostate it was 30.2 µM; in the assay on HS 578T breast, 45.2 µM.
For `O=C(O)Cc1c[nH]c2ccc(F)cc12`, the TGI with BT-549 breast, in the assay with PC-3 prostate and in the assay with MDA-N was over 100 µM throughout.
Consider `NS(=O)(=O)c1ccc(-n2nc(-c3ccc(Br)cc3)ccc2=O)cc1`, for which the GI50 in the assay on BT-549 breast, in the assay on PC-3 prostate and with HS 578T breast was over 10 µM throughout. In addition, the TGI in the assay on BT-549 breast, in the assay with PC-3 prostate and in the assay on HS 578T breast was over 10 µM in each case.
Turning to `O=C(Cc1ccc(/C=C/C(=O)c2ncc[nH]2)cc1)Nc1ccc(Cl)cc1`, the GI50 is 3.46 µM with BT-549 breast, 2.39 µM in the assay with PC-3 prostate and 18.8 µM in the assay on HS 578T breast. Besides, the TGI with BT-549 breast was 11.2 µM; in the assay on PC-3 prostate it was 7.45 µM; in the assay on HS 578T breast it was over 25 µM.
For `O=C1c2ccccc2C(=O)c2c1ccc1[nH]c(CCl)nc21`, the GI50 was 3.52 µM in the assay with BT-549 breast, 2.23 µM with PC-3 prostate and 2.94 µM with HS 578T breast. The TGI in the assay with BT-549 breast worked out at 12.7 µM; in the assay on PC-3 prostate it was 7.01 µM; in the assay with HS 578T breast, 14.7 µM.
As for `Cc1c(N2C(=O)/C(=C\c3ccccc3O)N=C2c2ccccc2)c(=O)n(-c2ccccc2)n1C`, the GI50 was over 100 µM in the assay on PC-3 prostate and 27.9 µM in the assay with HS 578T breast. Further, the TGI in the assay with PC-3 prostate is over 100 µM; in the assay on HS 578T breast, 75.3 µM.
Take `CC1=C2[C@@H](CC1)[C@]1(C)O[C@@](C(C)C)(C[C@H]1OC(=O)[C@H](C)O)[C@H]2OC(=O)/C=C/c1ccccc1`: the GI50 with BT-549 breast was 0.888 µM; in the assay with PC-3 prostate, 4.46 µM; with HS 578T breast it was 0.0529 µM. In addition, the TGI turned out to be 15.7 µM with BT-549 breast, 19.1 µM in the assay with PC-3 prostate and 0.378 µM with HS 578T breast.
Consider `COc1ccc(CNC(=O)[C@@H](C)N(C)C(=O)[C@@H]2CCCN2C(=O)[C@H](C(C)C)N(C)C(=O)[C@@H](NC(=O)[C@H](C(C)C)N(Cc2ccccc2)Cc2ccccc2)C(C)C)cc1OC` (Bn2Val-V[NMeV]P[dNMeA]-{NH(3,4-diMeO-benzyl)}), for which the GI50 was 9.43 µM with BT-549 breast, 5.61 µM with PC-3 prostate, 19.5 µM with HS 578T breast and 11.7 µM in the assay on MDA-N. Further, the TGI in the assay on BT-549 breast was 15.1 µM and 27.1 µM; with PC-3 prostate it was 26 µM and 24.5 µM; with MDA-N, 20.2 µM and 24.9 µM.
Regarding `COc1cccc(-c2nn(-c3ccccc3)cc2-c2ccnc(NCCCNS(=O)(=O)c3cccc(F)c3)c2)c1`, the values for the GI50 in the assay on BT-549 breast, in the assay on PC-3 prostate and in the assay on HS 578T breast were 2.76 µM, 2.97 µM and 6.52 µM, respectively. The TGI with BT-549 breast, with PC-3 prostate and in the assay with HS 578T breast was over 100 µM throughout.
On to `CCCCCCCCCCCCOC1C(CNCC2OC3OC(C)(C)OC3C2NC(=O)Nc2ccc(C(=O)OCC)cc2)OC2OC(C)(C)OC21` (centres undefined), for which the GI50 in the assay on BT-549 breast was 5.44 µM; with PC-3 prostate, 2.21 µM; with HS 578T breast it was 1.67 µM. For the same molecule, the values for the TGI with BT-549 breast, with PC-3 prostate and with HS 578T breast were 19.8 µM, 4.39 µM and 3.76 µM, respectively.
With `C[C@@H]1Cc2c([nH]c3ccccc23)[C@@H](c2c(F)cc(/C=C/C(=O)O)cc2F)N1CC(C)(C)F`, the GI50 was 11.3 µM with BT-549 breast, 10.2 µM with PC-3 prostate and 12.8 µM in the assay with HS 578T breast. Besides, the TGI was 26.3 µM with BT-549 breast, 27.4 µM in the assay with PC-3 prostate and 45.4 µM in the assay with HS 578T breast.
Consider `COc1ccccc1NC(=O)c1ccc(/C=C/C(=O)c2nccn2C)cc1`, for which the GI50 in the assay with BT-549 breast is 0.509 µM; in the assay with PC-3 prostate, 0.628 µM; with HS 578T breast, 1.1 µM. The TGI with BT-549 breast was determined as 1.19 µM; in the assay on PC-3 prostate it was 1.65 µM; in the assay on HS 578T breast, 9.8 µM.
As to `S=C1NCCN1C1=Nc2ccccc2CO1`, in the assay with BT-549 breast, the GI50 is over 100 µM and the TGI was over 100 µM. Further, in the assay on PC-3 prostate, the GI50 was over 100 µM and the TGI is over 100 µM.
